# Source: patent publication US12083084B2, “Method for enhancing energy production and metabolism in cells” (REPLICON HEALTH OY, priority 2013, dated 2024)
# Entries after “also recorded” stand apart in the source; their conditions may differ.
# What was measured:
# Assay type in all cases: cell-based
# [1] = system: primary human hepatocytes; assay: Cell viability by LDH release (CytoTox-One) in primary human hepatocytes; details: for viability compared to 0 dose (in words): primary human hepatocytes, standard treatment, moderate metabolic stress
# Procedure: (§1) Primary human hepatocytes were purchased from Celsis In Vitro Technologies (1450 South Rolling Road Baltimore, MD 21227, USA). […] According to the information provided by the Celsis, hepatocytes from each donor should have at least 70% viability and more than 5 million viable cells. The medium for the culture of hepatocytes was provided by Celsis. They were InVitroGRO CP (for plating) medium (Z99029) and InVitroGRO HI (for incubation) medium (Z99009). Antibiotics (Torpedo Antibiotics Mix, Z990007) were also from Celsis. The thaw, plating and culture of cells were carried out according to the instruction provided by the Celsis In Vitro Technologies.
# (§2) For the measurement of cell viability after treatment of test compound, CytoTox-One Homogeneous Membrane Integrity Assay kit (Promega, G7891) was used. The CytoTox-One Assay is a rapid fluorescent measure of the release of lactate dehydrogenase (LDH) from cells with a damaged membrane. The number of […] cells correlates to the fluorescence intensity determined by a fluorescence plate reader (Hidex Chameleon V multiplate reader, Hidex Oy, Turku, Finland) with excitation 544 nm and emission 590 nm. For the measurement of cellular reactive oxygen species (ROS), DCFDA Cellular ROS Detection Assay Kit from Abcam (ab113851) was used. Reactive oxygen species (ROS) assay kit (ab113851) uses the cell permeant reagent 2′,7′-dichlorofluorescein diacetate (DCFDA), a fluorogenic dye that measures hydroxyl, peroxyl and other ROS activity with the cell. The activity of ROS was measured by a fluorescence plate reader (Hidex) with excitation/emission wavelengths of 485 nm/535 nm.
# (§3) The culture of primary hepatocytes was carried out based on the instructions provided by Celsis. After thawing, the cells were suspended in InVitroGRO CP medium. Thereafter the viability of cells was determined using the Trypan Blue exclusion method. Then the concentration of cells was adjusted using InVitroGRO CP medium, so about 30000-35000 cells/100 μl/well can be seeded in collagen I coated 96 well plate (BD, 734-0248).
# (§4) After seeding, the cells were cultured overnight in the cell culture incubator (Sanyo MCO 18) at atmosphere of 95% air, 5% CO2 at 37° C. Thereafter, the culture medium for the cells was changed to InVitroGRO Hi (Hi Medium) containing test compound (D-glyceric acid calcium salt dehydrate) at the concentrations of 0, 0.2, 2 and 20 μg/ml (study 1, Table 1.1.1) and 0, 0.4, 2 and 10 μg/ml (study 2, Table 1.1.2).
# (§5) After 24 h (in study 1) and 20 h (in studies 2-4) incubation medium was renewed. Second renewal of the incubation medium occurred at 48 h in study 1 and at 40 h in other studies. ROS and LDH were measured after 1.5-2 hours after last change of the medium, i.e. in a situation with moderate metabolic stress.
# The measurement of LDH from medium (leaked LDH) and from cell and medium (total LDH) was carried out according to the instruction provided by the Promega (G7891). The plate was incubated at an incubator to achieve a temperature of 22° C. Thereafter, equal volume of CytoTox-ONE Reagent to cell culture medium (100 μl) was added to each well and mix for 30 seconds. Then they were incubated for 10 min at 22° C., and then 50 μl of Stop Solution was added to each well. After gentle mixing, the fluorescence signal was measured at an excitation wavelength of 560 nm and emission wavelength of 590 nm using the Hidex Chameleon V multiplate reader (Hidex Oy, Turku, Finland).
# For the total LDH measurement, all the steps are same except a 2 μl of Lysis Solution (per 100 μl original volume) will be added to the each well to lyse the cells before CytoTox-ONE Reagents will be added.
# For the LDH and ROS assays, individual values of each measurement were stored and average value of fluorescence signals of various repeats of each treatment at studied time point were calculated and compared. […] Viability (LDH) measurements contained 4-6 repeats depending on the study. […]
# [2] = system: primary human hepatocytes; assay: Cellular ROS detection (DCFDA) in primary human hepatocytes; details: primary human hepatocytes, moderate metabolic stress (1.5-2 h after change of medium)
# Procedure: as §1, §2, §3, §4
# In study 3 also LGA and HPA were tested and compared to DGA (see FIGS. 11c and 11d) with same doses as in study 2.
# In studies 2-4 additional diet with 0.75 mM of palmitic acid (“fatty acid diet”) was added to Hi Medium. Hi Medium in itself contains ample amounts of glucose and fructose and other necessary ingredients for keeping viability of the cell culture at optimal level.
# as §5
# The measurement of cellular reactive oxygen species (ROS) was carried out according to the instruction of Abcam (ab113851). At the end of treatment time point, culture medium was taken away for leaked LDH measurement and cells were washed with 100 μl/well PBS once. Thereafter 100 μl/well of DCDA mix was added and incubated for 45 min at 37° C. in the dark. Then cells were washed once with 1× buffer solution. The fluorescence signal was measured at an excitation wavelength of 485 nm and emission wavelength of 535 nm using the Hidex Chameleon V multiplate reader (Hidex Oy, Turku, Finland).
# For the LDH and ROS assays, individual values of each measurement were stored and average value of fluorescence signals of various repeats of each treatment at studied time point were calculated and compared. […]
# [3] = system: human primary hepatocytes; assay: NAD+/NADH quantification in human hepatocytes; parameters: NADtot / NADH / NAD+ / NAD+/NADH: unit not given here; details: donor alpha, new nutrition at 48 h, N = 5; 14 (μM); 48 h + 3 h
# Source text: For the measurement of total NAD (NADtot=NADH+NAD^+) and NAD^+/NADH ratio, a NAD^+/NADH Quantification kit (MAK037) from Sigma was used. NAD functions as an electron carrier, fluctuating between the oxidized (NAD^+) and reduced (NADH) forms. In addition, NAD^+ plays critical roles in ADP-ribosylation reaction and as a substrate for sirtuins. According to the Sigma instruction, the NAD^+/NADH Quantification kit (Sigma) provides a convenient tool for sensitive detection of NAD, NADH and their ratio without requirement to purify them from samples. Important to notice is that the kit measures NADH and NAD^+ in whole cell including all cell organelles and compartments. Mitochondrial matrix is clearly dominant NADH producer from TCA and beta oxidation (consuming naturally the same amount of NAD^+ in redox reactions). Importantly, formed NADH is also typically oxidized into NAD^+ in the matrix by Complex I in ETC. As is well known anaerobic carbohydrate metabolism, i.e. glycolysis, in cytosol also consumes NAD^+ and produces NADH.
# Cell culture in NADH-tests was like in Example 1.1. The change of the medium with DGAcs was conducted at 0 h, 24 h and 48 h. NAD measurements were made at 48+3 h in all cases. For CDP also HPA was tested, and for DOO no new nutrition at 48 h was added, i.e. test was conducted in fasting conditions.
# human hepatocytes = assay: Gene expression from hepatocytes lysates; details: donor three, N = 5; 14 (μM)
Molecule,viability compared to 0 dose (in words) [1],ROS compared to 0 dose/control (in words) [2],Change in NAD+/NADH vs. Control [3] [%],NAD+ [3],NAD+/NADH [3],NADH [3],NADtot [3],CYP2B6 gene expression deviation from control (human hepatocytes) [%],HO-1 gene expression deviation from control (human hepatocytes) [%],PGC-1a gene expression deviation from control (human hepatocytes) [%],"decrease of viability ([1]; donor one, High Medium only, equimolar comparison, 20+20+1.5 h, FIG. 6) [%]"
"O=C(O)C(=O)CO [HPA, hydroxypyruvate]",modestly increase the viability,decrease ROS levels significantly; also recorded: reduced ROS,−47,0.010,0.045,0.222,0.232,7,1,−2,
"O=C(O)[C@@H](O)CO [LGA, L-glyceric acid]",modestly increase the viability,decrease ROS levels significantly,,,,,,,,,
"trolox [Vitamin E, reference compound]",,,,,,,,,,,~23
